For assay [1], the target named is T1, Ubiquitin carboxyl-terminal hydrolase 7 (Homo sapiens, UniProt Q93009). The assay is described as follows: Inhibition of USP7 (unknown origin) using ubiquitin-EKL as substrate.
Target sequence in this assay (Q93009 whole entry): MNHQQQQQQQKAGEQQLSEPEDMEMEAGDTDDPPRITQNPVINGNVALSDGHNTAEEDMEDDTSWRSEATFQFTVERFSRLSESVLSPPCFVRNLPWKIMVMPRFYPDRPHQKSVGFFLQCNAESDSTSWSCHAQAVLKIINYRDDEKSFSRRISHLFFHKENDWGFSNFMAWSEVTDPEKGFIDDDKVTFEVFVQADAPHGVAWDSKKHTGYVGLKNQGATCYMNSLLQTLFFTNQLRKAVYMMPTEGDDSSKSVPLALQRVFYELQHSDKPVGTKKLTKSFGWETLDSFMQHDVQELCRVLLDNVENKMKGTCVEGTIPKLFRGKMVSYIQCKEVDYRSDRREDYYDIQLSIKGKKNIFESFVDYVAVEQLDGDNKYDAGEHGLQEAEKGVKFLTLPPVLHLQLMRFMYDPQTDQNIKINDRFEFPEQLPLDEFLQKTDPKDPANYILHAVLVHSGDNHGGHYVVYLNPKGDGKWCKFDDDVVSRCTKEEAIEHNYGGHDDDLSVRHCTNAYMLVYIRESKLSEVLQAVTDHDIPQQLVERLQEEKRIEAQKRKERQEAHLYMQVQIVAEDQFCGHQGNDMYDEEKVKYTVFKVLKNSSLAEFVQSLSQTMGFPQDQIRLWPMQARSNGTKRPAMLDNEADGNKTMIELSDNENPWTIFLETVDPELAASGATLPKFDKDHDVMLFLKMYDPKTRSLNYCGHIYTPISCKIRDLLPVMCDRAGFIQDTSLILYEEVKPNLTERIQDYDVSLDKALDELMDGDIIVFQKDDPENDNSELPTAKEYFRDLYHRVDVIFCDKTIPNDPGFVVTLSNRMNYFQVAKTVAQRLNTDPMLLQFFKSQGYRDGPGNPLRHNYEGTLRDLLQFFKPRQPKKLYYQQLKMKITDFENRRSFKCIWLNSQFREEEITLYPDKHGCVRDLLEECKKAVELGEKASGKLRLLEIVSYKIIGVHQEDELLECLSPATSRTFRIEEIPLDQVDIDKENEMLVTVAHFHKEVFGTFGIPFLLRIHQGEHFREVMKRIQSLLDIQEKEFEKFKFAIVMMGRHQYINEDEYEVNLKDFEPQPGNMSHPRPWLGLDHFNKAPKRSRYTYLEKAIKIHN
In assay [2] the target is T1, Ubiquitin carboxyl-terminal hydrolase 7. The assay is described as follows: Inhibition of USP7 (unknown origin) using ubiquitin-EKL as substrate at 20 uM.
Target sequence in this assay (Q93009 whole entry, looked up): as the sequence (Q93009 whole entry) above
Another assay relates to HCT-116. The assay is described as follows: Antiproliferative activity against p53 wild type human HCT116 cells expressing USP7 assessed as growth inhibition up to 50 uM. Format: functional, cell-based.
For assay [3], the target named is T2, Sentrin-specific protease 1 (Homo sapiens, UniProt Q9P0U3).
T2 sequence (Q9P0U3 whole entry): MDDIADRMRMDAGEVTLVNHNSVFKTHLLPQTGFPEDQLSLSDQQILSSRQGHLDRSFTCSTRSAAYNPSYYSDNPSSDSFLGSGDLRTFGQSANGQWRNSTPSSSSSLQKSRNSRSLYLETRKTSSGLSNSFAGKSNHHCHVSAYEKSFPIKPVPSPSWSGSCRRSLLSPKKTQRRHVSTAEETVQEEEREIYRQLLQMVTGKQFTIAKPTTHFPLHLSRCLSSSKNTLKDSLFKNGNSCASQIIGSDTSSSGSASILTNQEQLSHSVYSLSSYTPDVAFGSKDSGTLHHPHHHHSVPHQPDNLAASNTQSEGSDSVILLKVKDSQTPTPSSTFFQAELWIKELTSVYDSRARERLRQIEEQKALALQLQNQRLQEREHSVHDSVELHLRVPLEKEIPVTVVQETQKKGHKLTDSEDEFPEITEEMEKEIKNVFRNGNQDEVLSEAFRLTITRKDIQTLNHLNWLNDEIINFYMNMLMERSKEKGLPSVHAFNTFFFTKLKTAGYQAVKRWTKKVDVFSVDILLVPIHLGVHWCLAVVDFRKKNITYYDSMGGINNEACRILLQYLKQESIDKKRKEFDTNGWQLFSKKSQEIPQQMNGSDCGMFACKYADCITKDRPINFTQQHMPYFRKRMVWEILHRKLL
The assay is described as follows: Inhibition of core catalytic domain of SENP1 (unknown origin) using SUMO3-EKL as substrate.

For assay [4], the target named is T3, Ubiquitin carboxyl-terminal hydrolase 21 (Homo sapiens, UniProt Q9UK80).
T3 sequence (Q9UK80 whole entry): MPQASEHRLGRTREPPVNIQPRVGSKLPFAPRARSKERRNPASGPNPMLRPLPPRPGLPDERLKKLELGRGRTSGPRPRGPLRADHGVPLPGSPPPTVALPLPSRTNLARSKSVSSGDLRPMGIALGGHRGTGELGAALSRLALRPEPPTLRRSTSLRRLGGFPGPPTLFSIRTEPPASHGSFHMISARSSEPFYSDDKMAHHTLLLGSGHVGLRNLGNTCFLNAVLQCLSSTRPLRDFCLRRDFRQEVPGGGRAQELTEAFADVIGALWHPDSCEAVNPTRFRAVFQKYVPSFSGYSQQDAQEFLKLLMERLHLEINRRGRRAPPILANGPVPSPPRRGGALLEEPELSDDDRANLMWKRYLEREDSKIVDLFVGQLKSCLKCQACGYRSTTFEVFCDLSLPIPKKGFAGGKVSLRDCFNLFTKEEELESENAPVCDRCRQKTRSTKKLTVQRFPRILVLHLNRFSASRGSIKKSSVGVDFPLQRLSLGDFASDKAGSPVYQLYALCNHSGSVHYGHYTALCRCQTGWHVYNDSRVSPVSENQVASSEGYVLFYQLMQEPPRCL
Kind of assay: Inhibition of core catalytic domain of USP21 (unknown origin) using ubiquitin-Rh110 as substrate.

Assay [5] concerns the target T4, Ubiquitin carboxyl-terminal hydrolase 8 (Homo sapiens, UniProt P40818).
T4 sequence (P40818 whole entry): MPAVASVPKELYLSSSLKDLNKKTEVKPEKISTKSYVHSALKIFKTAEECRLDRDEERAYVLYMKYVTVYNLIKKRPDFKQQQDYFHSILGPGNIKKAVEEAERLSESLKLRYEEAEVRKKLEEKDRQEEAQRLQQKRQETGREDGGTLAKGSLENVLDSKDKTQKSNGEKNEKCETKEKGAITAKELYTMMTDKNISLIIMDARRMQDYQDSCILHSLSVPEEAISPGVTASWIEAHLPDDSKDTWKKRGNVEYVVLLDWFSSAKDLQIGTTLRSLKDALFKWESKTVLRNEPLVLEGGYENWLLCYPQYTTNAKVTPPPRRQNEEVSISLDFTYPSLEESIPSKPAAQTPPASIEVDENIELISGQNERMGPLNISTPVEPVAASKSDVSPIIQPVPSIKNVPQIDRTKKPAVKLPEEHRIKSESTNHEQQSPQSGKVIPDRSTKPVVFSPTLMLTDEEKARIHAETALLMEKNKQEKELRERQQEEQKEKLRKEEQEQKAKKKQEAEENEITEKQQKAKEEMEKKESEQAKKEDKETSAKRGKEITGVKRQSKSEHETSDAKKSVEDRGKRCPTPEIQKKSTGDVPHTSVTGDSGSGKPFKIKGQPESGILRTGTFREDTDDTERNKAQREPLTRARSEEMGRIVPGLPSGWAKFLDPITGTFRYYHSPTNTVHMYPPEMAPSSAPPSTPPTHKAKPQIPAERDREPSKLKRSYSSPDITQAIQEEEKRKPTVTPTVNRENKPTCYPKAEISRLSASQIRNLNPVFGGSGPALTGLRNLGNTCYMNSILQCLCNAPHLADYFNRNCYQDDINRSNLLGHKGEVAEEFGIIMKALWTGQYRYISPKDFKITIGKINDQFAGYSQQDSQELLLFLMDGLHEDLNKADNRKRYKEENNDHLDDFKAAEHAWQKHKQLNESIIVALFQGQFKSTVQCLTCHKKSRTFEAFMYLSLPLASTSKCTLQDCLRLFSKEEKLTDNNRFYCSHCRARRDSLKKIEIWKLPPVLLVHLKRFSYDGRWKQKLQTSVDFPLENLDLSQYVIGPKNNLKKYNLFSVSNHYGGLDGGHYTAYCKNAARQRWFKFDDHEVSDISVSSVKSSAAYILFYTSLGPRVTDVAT
Kind of assay: Inhibition of core catalytic domain of USP8 (unknown origin) using ubiquitin-Rh110 as substrate.

Assay [6] has as its target T5, Ubiquitin carboxyl-terminal hydrolase 2 (Homo sapiens, UniProt O75604).
T5 sequence (O75604 whole entry): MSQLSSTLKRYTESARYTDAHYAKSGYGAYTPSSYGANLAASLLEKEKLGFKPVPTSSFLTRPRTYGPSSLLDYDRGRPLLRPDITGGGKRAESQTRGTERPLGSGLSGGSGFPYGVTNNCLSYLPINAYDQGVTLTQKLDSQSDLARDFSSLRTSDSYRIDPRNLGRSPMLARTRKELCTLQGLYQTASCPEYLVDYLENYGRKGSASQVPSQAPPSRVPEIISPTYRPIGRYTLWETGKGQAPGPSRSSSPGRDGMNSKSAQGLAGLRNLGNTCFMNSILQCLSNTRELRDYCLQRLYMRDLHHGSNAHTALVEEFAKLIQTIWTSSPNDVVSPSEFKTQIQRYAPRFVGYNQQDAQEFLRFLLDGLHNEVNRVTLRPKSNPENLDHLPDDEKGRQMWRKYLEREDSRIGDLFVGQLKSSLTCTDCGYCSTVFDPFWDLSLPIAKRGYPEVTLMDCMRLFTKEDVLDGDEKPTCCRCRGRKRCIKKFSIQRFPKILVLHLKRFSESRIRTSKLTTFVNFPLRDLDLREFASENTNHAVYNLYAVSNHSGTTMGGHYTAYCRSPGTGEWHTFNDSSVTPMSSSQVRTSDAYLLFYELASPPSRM
The assay is described as follows: Inhibition of core catalytic domain of USP2 (unknown origin) using diubiquitin IQF K4804 as substrate.

Activity calls are given as the source filed them. No cut-off for these calls is given here.

Broadly, the IC50 is the concentration needed to halve the response being measured. The molecule `N#Cc1nc2c(nc1C#N)-c1ccc(Cl)cc1C2=O` came in with a concentration for half-maximal inhibition (IC50) in assay [1] of 0.42 µM. The same measure, in the same setting: the same measure for `CN(CCCNC(=O)c1ccc2nc3c(c(Cl)c2c1)CCCC3)Cc1ccccc1`: 28.1 µM; for `CCN(CCCNC(=O)c1ccc2nc3c(c(Cl)c2c1)CCCC3)Cc1ccccc1`: 22.6 µM.

Broadly, the inhibition is the share of the control response that was lost under treatment. Read a high inhibition as a response far below the control. In assay [2], `NC1=N/C(=C2/CCNC(=O)c3[nH]ccc32)C(=O)N1` returned an inhibition of 20%. As for `NC1=NC(=O)/C(=C2\CCNC(=O)c3[nH]c(Br)cc32)N1`, the inhibition in assay [2] worked out at 20%. For `O=C1NC(=O)/C(=C2\CCNC(=O)c3[nH]ccc32)N1` [SPONGIACIDIN C], the “growth inhibition (GI)” value in the assay with HCT-116 is “inactive”. Further, the IC50 in assay [3] was greater than 31.6 µM; in assay [4] it was 16.6 µM; in assay [5], greater than 31.6 µM; in assay [6], greater than 31.6 µM; in assay [1] it was 3.8 µM.

The values are drawn from ChEMBL document CHEMBL2396580, “Spongiacidin C, a pyrrole alkaloid from the marine sponge Stylissa massa, functions as a USP7 inhibitor” (Bioorg Med Chem Lett, 2013).
